Measured values taken from the NIST ThermoML archive (doi:10.1016/j.jct.2017.12.020).

Columns and labels:
[1] = Liquid; for speed of sound: Frequency=2 MHz, Pulse-echo method; for mass density: Vibrating tube method
[2] = molar heat capacity at constant pressure; settings: 101.33 kPa, Liquid, Small sample (50 mg) DSC

CCCCCCCCCCCC(=O)OCC [ethyl dodecanoate]
[1]
Settings | mass density [kg/m3] | speed of sound [m/s]
293.15 K, 100 kPa | – | 1339.9
293.15 K, 101.33 kPa | 862.2 | –
293.15 K, 10000 kPa | – | 1390.8
293.15 K, 20000 kPa | – | 1436.7
293.15 K, 30000 kPa | – | 1479.3
293.15 K, 40000 kPa | – | 1519
293.15 K, 50000 kPa | – | 1555.9
293.15 K, 60000 kPa | – | 1591.9
293.15 K, 70000 kPa | – | 1626.2
293.15 K, 80000 kPa | – | 1659.7
293.15 K, 90000 kPa | – | 1690.9
293.15 K, 100000 kPa | – | 1720.9
293.15 K, 120000 kPa | – | 1778.5
303.15 K, 101.33 kPa | 854.3 | –
313.15 K, 100 kPa | – | 1266.1
313.15 K, 101.33 kPa | 846.5 | –
313.15 K, 10000 kPa | – | 1317.6
313.15 K, 20000 kPa | – | 1365
313.15 K, 30000 kPa | – | 1409.3
313.15 K, 40000 kPa | – | 1452.1
313.15 K, 50000 kPa | – | 1491.4
313.15 K, 60000 kPa | – | 1529.2
313.15 K, 70000 kPa | – | 1564.8
313.15 K, 80000 kPa | – | 1600.2
313.15 K, 90000 kPa | – | 1632.3
313.15 K, 100000 kPa | – | 1663
313.15 K, 120000 kPa | – | 1721.9
313.15 K, 140000 kPa | – | 1777.9
313.15 K, 160000 kPa | – | 1830.9
323.15 K, 101.33 kPa | 838.8 | –
333.15 K, 100 kPa | – | 1194
333.15 K, 101.33 kPa | 831.1 | –
333.15 K, 10000 kPa | – | 1250.3
333.15 K, 20000 kPa | – | 1300.9
333.15 K, 30000 kPa | – | 1348
333.15 K, 40000 kPa | – | 1393.4
333.15 K, 50000 kPa | – | 1434.3
333.15 K, 60000 kPa | – | 1473.3
333.15 K, 70000 kPa | – | 1509.8
333.15 K, 80000 kPa | – | 1545.4
333.15 K, 90000 kPa | – | 1578.6
333.15 K, 100000 kPa | – | 1610.9
333.15 K, 120000 kPa | – | 1674.1
333.15 K, 140000 kPa | – | 1730.4
333.15 K, 160000 kPa | – | 1782.7
333.15 K, 180000 kPa | – | 1835.3
333.15 K, 200000 kPa | – | 1883.8
343.15 K, 101.33 kPa | 823.2 | –
353.15 K, 100 kPa | – | 1125.7
353.15 K, 101.33 kPa | 815.2 | –
353.15 K, 10000 kPa | – | 1186
353.15 K, 20000 kPa | – | 1240.6
353.15 K, 30000 kPa | – | 1290.3
353.15 K, 40000 kPa | – | 1337.1
353.15 K, 50000 kPa | – | 1379.7
353.15 K, 60000 kPa | – | 1419.8
353.15 K, 70000 kPa | – | 1458.8
353.15 K, 80000 kPa | – | 1496.2
353.15 K, 90000 kPa | – | 1530.6
353.15 K, 100000 kPa | – | 1564.4
353.15 K, 120000 kPa | – | 1627
353.15 K, 140000 kPa | – | 1685.1
353.15 K, 160000 kPa | – | 1740.7
353.15 K, 180000 kPa | – | 1793.6
353.15 K, 200000 kPa | – | 1843.5

viscosity [mPa·s], [1]
Settings | 293.15 K | 313.15 K | 333.15 K | 353.15 K
101.33 kPa, Capillary tube (Ostwald / Ubbelohde) method | 3.35 | 2.19 | 1.55 | 1.16
10000 kPa, quartz crystal resonator | 3.77 | 2.46 | 1.74 | 1.29
20000 kPa, quartz crystal resonator | 4.28 | 2.75 | 1.91 | 1.44
30000 kPa, quartz crystal resonator | 4.78 | 3.11 | 2.13 | 1.58
40000 kPa, quartz crystal resonator | 5.39 | 3.37 | 2.33 | 1.73
50000 kPa, quartz crystal resonator | 5.94 | 3.74 | 2.55 | 1.9
60000 kPa, quartz crystal resonator | 6.65 | 4.11 | 2.82 | 2.05
70000 kPa, quartz crystal resonator | 7.25 | 4.45 | 3.08 | 2.22
80000 kPa, quartz crystal resonator | 8.13 | 4.92 | 3.29 | 2.4
90000 kPa, quartz crystal resonator | 8.91 | 5.46 | 3.6 | 2.58
100000 kPa, quartz crystal resonator | 9.76 | 5.96 | 3.94 | 2.78
120000 kPa, quartz crystal resonator | 11.9 | 6.77 | 4.55 | 3.22
140000 kPa, quartz crystal resonator | – | 8.06 | 5.27 | 3.68
160000 kPa, quartz crystal resonator | – | 9.57 | 6.1 | 4.19
180000 kPa, quartz crystal resonator | – | – | 6.98 | 4.76
200000 kPa, quartz crystal resonator | – | – | 7.85 | 5.28

[2]
Settings | molar heat capacity at constant pressure [J/K/mol]
297.91 K | 459.03
307.79 K | 464.37
317.66 K | 469.8
327.54 K | 475.42
337.42 K | 481.45
347.29 K | 487.46
357.17 K | 493.28
367.05 K | 499.88
376.92 K | 507.07
386.8 K | 515.39

CCCCCCCCCCCC(=O)OC [methyl dodecanoate]
[1]
Settings | mass density [kg/m3] | speed of sound [m/s]
293.15 K, 100 kPa | – | 1351.3
293.15 K, 101.33 kPa | 869.2 | –
293.15 K, 10000 kPa | – | 1400.9
293.15 K, 20000 kPa | – | 1445.1
293.15 K, 30000 kPa | – | 1486.4
293.15 K, 40000 kPa | – | 1526.9
293.15 K, 50000 kPa | – | 1563.8
293.15 K, 60000 kPa | – | 1600
293.15 K, 70000 kPa | – | 1628.6
293.15 K, 80000 kPa | – | 1660.5
293.15 K, 90000 kPa | – | 1690.9
303.15 K, 101.33 kPa | 861.4 | –
313.15 K, 100 kPa | – | 1276.4
313.15 K, 101.33 kPa | 853.8 | –
313.15 K, 10000 kPa | – | 1328
313.15 K, 20000 kPa | – | 1375.3
313.15 K, 30000 kPa | – | 1420
313.15 K, 40000 kPa | – | 1461.6
313.15 K, 50000 kPa | – | 1500.9
313.15 K, 60000 kPa | – | 1537
313.15 K, 70000 kPa | – | 1573.3
313.15 K, 80000 kPa | – | 1607.4
313.15 K, 90000 kPa | – | 1637.8
313.15 K, 100000 kPa | – | 1671.1
313.15 K, 120000 kPa | – | 1728.6
313.15 K, 140000 kPa | – | 1784.4
323.15 K, 101.33 kPa | 845.8 | –
333.15 K, 100 kPa | – | 1205.5
333.15 K, 101.33 kPa | 837.9 | –
333.15 K, 10000 kPa | – | 1259.6
333.15 K, 20000 kPa | – | 1311
333.15 K, 30000 kPa | – | 1357.5
333.15 K, 40000 kPa | – | 1401
333.15 K, 50000 kPa | – | 1441.3
333.15 K, 60000 kPa | – | 1480.9
333.15 K, 70000 kPa | – | 1515.7
333.15 K, 80000 kPa | – | 1550.8
333.15 K, 90000 kPa | – | 1585.9
333.15 K, 100000 kPa | – | 1621.9
333.15 K, 120000 kPa | – | 1682
333.15 K, 140000 kPa | – | 1739.2
333.15 K, 160000 kPa | – | 1791.8
333.15 K, 180000 kPa | – | 1843.5
333.15 K, 200000 kPa | – | 1893.2
343.15 K, 101.33 kPa | 830 | –
353.15 K, 100 kPa | – | 1133.5
353.15 K, 101.33 kPa | 822.2 | –
353.15 K, 10000 kPa | – | 1192.2
353.15 K, 20000 kPa | – | 1247.2
353.15 K, 30000 kPa | – | 1295.9
353.15 K, 40000 kPa | – | 1342.5
353.15 K, 50000 kPa | – | 1386.1
353.15 K, 60000 kPa | – | 1426.2
353.15 K, 70000 kPa | – | 1463.8
353.15 K, 80000 kPa | – | 1500.1
353.15 K, 90000 kPa | – | 1534.8
353.15 K, 100000 kPa | – | 1568.3
353.15 K, 120000 kPa | – | 1632.8
353.15 K, 140000 kPa | – | 1690.8
353.15 K, 160000 kPa | – | 1744.4
353.15 K, 180000 kPa | – | 1802.7
353.15 K, 200000 kPa | – | 1851.2

viscosity [mPa·s], [1]
Settings | 293.15 K | 313.15 K | 333.15 K | 353.15 K
101.33 kPa, Capillary tube (Ostwald / Ubbelohde) method | 3.14 | 2.05 | 1.45 | 1.09
10000 kPa, quartz crystal resonator | 3.53 | 2.3 | 1.61 | 1.21
20000 kPa, quartz crystal resonator | 3.96 | 2.59 | 1.78 | 1.33
30000 kPa, quartz crystal resonator | 4.4 | 2.85 | 1.98 | 1.48
40000 kPa, quartz crystal resonator | 5 | 3.16 | 2.18 | 1.62
50000 kPa, quartz crystal resonator | 5.64 | 3.5 | 2.39 | 1.76
60000 kPa, quartz crystal resonator | 6.21 | 3.85 | 2.62 | 1.92
70000 kPa, quartz crystal resonator | 6.79 | 4.22 | 2.82 | 2.08
80000 kPa, quartz crystal resonator | 7.58 | 4.64 | 3.07 | 2.25
90000 kPa, quartz crystal resonator | – | 5.06 | 3.36 | 2.46
100000 kPa, quartz crystal resonator | – | 5.55 | 3.63 | 2.65
120000 kPa, quartz crystal resonator | – | 6.67 | 4.26 | 3.09
140000 kPa, quartz crystal resonator | – | 7.67 | 4.95 | 3.54
160000 kPa, quartz crystal resonator | – | – | 5.75 | 4.06
180000 kPa, quartz crystal resonator | – | – | 6.56 | 4.64
200000 kPa, quartz crystal resonator | – | – | 7.56 | 5.34

[2]
Settings | molar heat capacity at constant pressure [J/K/mol]
297.91 K | 433.79
307.79 K | 438.57
317.66 K | 443.29
327.54 K | 448.34
337.42 K | 453.83
347.29 K | 459.28
357.17 K | 464.66
367.05 K | 470.72
376.92 K | 477.82
386.8 K | 485.49
